The source of these data is US20250057910A1, “Application of Polypeptide in Preparation of Product for Preventing or Treating Skin Injury Diseases” (Sichuan Gooddoctor Panxi Pharmaceutical Co., Ltd., priority 2021, published 2025).

Ends that are not written are not given here.

The subject of assay [1] is HaCaT cells (human immortalized keratinocytes). The assay can be described thus: Proliferation of HaCaT cells (CCK8). The assay is classed as cell-based. The following applies: 72 h, 1640 medium with 1% serum, FIG. 1. As for the experimental part: Experimental method: Human immortalized keratinocytes (HaCAT cells) were adjusted to a concentration of 1.0*10^5 to 5.0*10^5/mL for passaging, and cultured at 37° C. and 5% CO2 for 24-36 hours for the biological activity detection. The cells were digested with 0.25% pancreatin for 5 min, a 1640 whole blood medium with more than 1 times the volume of pancreatin was added to stop digestion, a cell suspension was collected and centrifuged at 1000 RPM for 3 min, the supernatant was discarded, 2 mL of 1640 whole blood medium was added to resuspend the cells, 20 uL cell suspension was taken, stained with AOPI, and then the concentration of cells in the suspension was detected with a cell counter, the cell suspension was formulated with 1640 medium with 10% serum to a concentration of 5*10^4/mL and seeded into 96-well cell culture plates with 100 μL per well, i.e. 5000 cells/well, and cultured overnight at 37° C. and 5% CO2.
After 24 hours, the original culture medium was discarded and 100 μL of each of different concentrations of polypeptide solutions formulated with 1640 culture medium with 1% serum was added. […] The mixtures were cultured at 37° C. and 5% CO2 for 72 h, and the proliferation of the HaCaT cell line was detected by the CCK8 kit.

Assay [2] has as its system Transgenic zebrafish with vascular green fluorescence. Put plainly: Angiogenesis in zebrafish with simvastatin-induced microvessel deficiency. In kind it is in vivo. The following applies: intravenous injection 12.5, 25.0 and 50.0 mg/mL, 10 nL, 2 days, vs model control. Here is the method:
Experimental animals: Transgenic zebrafish with vascular green fluorescence, raised in water for culturing fish at 28° C. (water quality: 200 mg of instant dissolving sea salt being added to every 1 L of water made by reverse osmosis, with a conductivity of 450-550 μS/cm, a pH of 6.5-8.5 and a hardness of 50-100 mg/L CaCO3), at the age of 1 day post fertilization (1 dpf). The animals were provided by the fish breeding center of Hangzhou Hunter Biotechnology Co., Ltd. with the experimental animal use license number of SYXK (Zhejiang) 2012-0171, and the breeding management complied with the requirements of international AAALAC certification (certification number: 001458).
Experimental method: 1 dpf transgenic zebrafish with vascular green fluorescence were randomly selected and placed in a 6-well plate, with 30 fish per well (per experimental group). […] Treatment was performed at 28° C. for 2 days, 10 zebrafish were randomly selected in each experimental group and placed under a fluorescence microscope to take photos, the data were analyzed and collected using NIS-Elements D 3.20 advanced image processing software, the subintestinal vascular area and the number of subintestinal vascular branches were analyzed, and the statistical analysis results of these indexes were used to evaluate the efficacy of the samples of promoting angiogenesis.

In assay [3] the test system is HMEC-1 cells (human microvascular endothelial cells). Put plainly: Proliferation of HMEC-1 cells (CCK-8). In kind it is cell-based. The following applies: 48 hours, 0% serum medium, FIG. 2. As for the experimental part: Experimental method: Human microvascular endothelial cells (HMEC-1 cells) were cultured in 10% serum medium at 37° C. and 5% CO2, the culture fluid was changed every 1-2 days, and the cell concentration was controlled to be 4*10^6 cells/mL for passaging. The cells were collected and prepared into a concentration of 4*10^4 cells/mL with a serum-free medium, seeded into a 96-well cell culture plate with 100 uL per well, i.e., 4000 cells/well, and cultured at 37° C. and 5% CO2 to be adherent.
The polypeptide was dissolved in PBS solution and prepared into a stock solution with a concentration of 1 mg/mL. The polypeptide stock solution was prepared with 0% serum medium to test concentrations as the experimental groups; in the same manner, recombinant human vascular endothelial growth factor VEGF (100 ng/mL) was prepared and added as positive control; and for the blank control group, the same volume of 0% serum medium without drugs was added. For all the groups, 5 duplicate wells were incubated at 37° C. and 5% CO2 for 48 hours. The CCK-8 was used to detect cell proliferation: serum-free medium containing 10% CCK-8 was added to each well, and absorbances were measured at 450 nm by microplate reader after incubation in an incubator for 2 hours.

Turning to PAAEPVPL [polypeptide], in assay [1], the “Proliferation-promoting effect on the HaCaT cell line” value is “significant effect of promoting proliferation”. Besides, the “Subintestinal vascular area (area of regenerated blood vessels)” value in assay [2] (FIG. 6) is listed as “significantly promote the increase of the subintestinal vascular area”. In addition, in assay [2] (FIG. 7), the “Number of subintestinal vascular branches” value is recorded as “the increase of the number of subintestinal vascular branches”. Further, the “Proliferation-promoting effect on the HMEC-1 cell line” value in assay [3] was “significant effect of promoting proliferation”.
